Source: patent publication US12606548B2, “Fungicidal oxadiazoles” (FMC CORPORATION, priority 2019, dated 2026)
Marks after values point to notes of the source that are not given here.

How the values were obtained:
Assay type in all cases: in vivo
[1] = test system: Puccinia recondita f. sp. tritici; assay: Test C: test suspension sprayed on wheat seedlings, inoculated next day with Puccinia recondita f. sp. tritici (wheat leaf rust), visual disease rating; settings: for Test C rating (% disease control): relative to the controls
Outline: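 Wheat seedlings received a run-off spray of test suspension (ppm rate as listed; acetone/water 50/50, 250 ppm PEG400 surfactant). Leaf rust spore inoculation followed one day later, then 24 h at 20° C in saturated air and 6 days at 20° C before disease was scored visually.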

Zymoseptoria tritici = assay: Test B: test suspension sprayed on wheat seedlings, inoculated next day with Zymoseptoria tritici (wheat leaf blotch), visual disease rating; settings: for Test B rating (% disease control): relative to the controls
Excerpt: General protocol for preparing test suspensions for Tests A-C: the test compounds were first dissolved in acetone in an amount equal to 3% of the final volume and then suspended at the desired concentration (in ppm) in acetone and purified water (50/50 mix by volume) containing 250 ppm of the surfactant PEG400 (polyhydric alcohol esters). The resulting test suspensions were then used in Tests A-C.
The test suspension was sprayed to the point of run-off on wheat seedlings. The following day the seedlings were inoculated with a spore suspension of Zymoseptoria tritici (the causal agent of wheat leaf blotch) and incubated in a saturated atmosphere at 24° C., for 48 h, and then moved to a growth chamber at 20° C., for 17 days, after which time visual disease ratings were made.
Results for Tests A-C are given in Table A. In the Table, a rating of 100 indicates 100% disease control and a rating of 0 indicates no disease control (relative to the controls). A dash (-) indicates the compound was not tested. The test suspensions were sprayed at the concentration listed in the column “Rate in ppm”, unless otherwise indicated. An asterisk “*” next to the rating indicates a 250 ppm test suspension was used, a double asterisk “**” next to the rating indicates a 100 ppm test suspension was used, and a triple asterisk “***” next to the rating indicates a 50 ppm test suspension was used.

Phakopsora pachyrhizi = assay: Test A: test suspension sprayed on soybean seedlings, inoculated next day with Phakopsora pachyrhizi (Asian soybean rust), visual disease rating; settings: for Test A rating (% disease control): relative to the controls
Outline: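 Compounds first dissolved in acetone (3% of final volume), then suspended in acetone/water 50/50 with 250 ppm PEG400 and sprayed to run-off on soybean seedlings at the stated ppm rate. Inoculated next day with P. pachyrhizi spores; 24 h saturated atmosphere at 22 °C, then 8 days in growth chamber at 22 °C before visual disease rating.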

| Molecule | Test C rating (% disease control) ([1]; Rate 10 ppm test suspension) [%] | Test B rating (% disease control) (Zymoseptoria tritici; 250 ppm test suspension) | Test A rating (% disease control) (Phakopsora pachyrhizi; Rate 10 ppm test suspension) [%] | other results |
| --- | --- | --- | --- | --- |
| O=C(NCCOC(F)(F)F)c1coc(Cc2ccc(-c3noc(C(F)(F)F)n3)cc2)n1 [compound 401] | 99 | 77* % | 100 |  |
| O=C(c1coc(Cc2ccc(-c3noc(C(F)(F)F)n3)cc2)n1)N1CCC(F)(F)C1 [compound 402] | 90 | 96* % | 100 |  |
| CCOC(=O)c1csc(COc2ccc(-c3noc(C(F)(F)F)n3)cc2)n1 [compound 404] | 68 | 0* % | 0 |  |
| CN(C)C(=O)C1=NOC(CN2CCC(c3noc(C(F)(F)F)n3)CC2)C1 (stereo not drawn) [compound 426] |  | 9* % |  | Test C rating (% disease control) ([1]; Rate 250 ppm test suspension): 0%; Test A rating (% disease control) (Phakopsora pachyrhizi; Rate 250 ppm test suspension): 0% |
| O=C(c1ccc(Cc2ccc(-c3noc(C(F)(F)F)n3)cc2)o1)C(F)(F)F [compound 450] | 0 | 41* % | 94 |  |
| FC(F)(F)c1nc(-c2ccc(Cc3ccccc3)cc2)no1 [compound 451] | 0 | 8* % | 99 |  |
| COC(=O)c1cnc(Oc2ccc(-c3noc(C(F)(F)F)n3)cc2)s1 [compound 452] | 0 | 59* % | 81 |  |
| CCOC(=O)c1ccc(Cc2ccc(-c3noc(C(F)(F)F)n3)cc2)cc1 [compound 453] | 0 | 50* % | 92 |  |
| COC(=O)c1coc(Cc2ccc(-c3noc(C(F)(F)F)n3)cc2)c1 [compound 456] | 68 | 65* % | 100 |  |
| CCOC(=O)c1cnn(CN2CCC(c3noc(C(F)(F)F)n3)CC2)c1 [compound 458] |  | 0* % |  | Test C rating (% disease control) ([1]; Rate 50 ppm test suspension): 0%; Test A rating (% disease control) (Phakopsora pachyrhizi; Rate 50 ppm test suspension): 0% |
| CCOC(=O)c1cnn(CCN2CCC(c3noc(C(F)(F)F)n3)CC2)c1 [compound 459] |  | 0* % |  | Test C rating (% disease control) ([1]; Rate 50 ppm test suspension): 0%; Test A rating (% disease control) (Phakopsora pachyrhizi; Rate 50 ppm test suspension): 0% |
| O=C(NCC(F)(F)F)c1csc(Cc2ccc(-c3noc(C(F)(F)F)n3)cc2)n1 [compound 463] | 100 | 65* % | 100 |  |
| COCCNC(=O)c1coc(COc2ccc(-c3noc(C(F)(F)F)n3)cc2)n1 [compound 464] | 23 | 94* % | 79 |  |
| O=C(NCC(F)(F)F)c1coc(COc2ccc(-c3noc(C(F)(F)F)n3)cc2)n1 [compound 465] | 80 | 0* % | 100 |  |
| O=C(NCCn1cccn1)c1coc(COc2ccc(-c3noc(C(F)(F)F)n3)cc2)n1 [compound 466] | 55 | 3* % | 100 |  |
| O=C(NCCC(F)(F)F)c1coc(COc2ccc(-c3noc(C(F)(F)F)n3)cc2)n1 [compound 467] | 68 | 6* % | 97 |  |
| N#CCNC(=O)c1coc(COc2ccc(-c3noc(C(F)(F)F)n3)cc2)n1 [compound 468] | 0 | 22* % | 84 |  |

| Molecule | Test C rating (% disease control) ([1]; Rate 10 ppm test suspension) [%] | Test B rating (% disease control) (Zymoseptoria tritici; 250 ppm test suspension) | Test A rating (% disease control) (Phakopsora pachyrhizi; Rate 10 ppm test suspension) [%] | other results |
| --- | --- | --- | --- | --- |
| COCCNC(=O)c1csc(COc2ccc(-c3noc(C(F)(F)F)n3)cc2)n1 [compound 469] | 86 | 65* % | 96 |  |
| O=C(NCC(F)(F)F)c1csc(COc2ccc(-c3noc(C(F)(F)F)n3)cc2)n1 [compound 470] | 94 | 0* % | 100 |  |
| O=C(NCCn1cccn1)c1csc(COc2ccc(-c3noc(C(F)(F)F)n3)cc2)n1 [compound 471] | 80 | 15* % | 77 |  |
| O=C(NCCC(F)(F)F)c1csc(COc2ccc(-c3noc(C(F)(F)F)n3)cc2)n1 [compound 472] | 0 | 22* % | 77 |  |
| N#CCNC(=O)c1csc(COc2ccc(-c3noc(C(F)(F)F)n3)cc2)n1 [compound 473] | 89 | 28* % | 94 |  |
| O=C(c1csc(Cc2ccc(-c3noc(C(F)(F)F)n3)cc2)n1)N1CCOCC1 [compound 487] | 100 |  | 100 | Test B rating (% disease control) (Zymoseptoria tritici; 100 ppm test suspension (double asterisk)): 98** % |
| CCNC(=O)c1csc(Cc2ccc(-c3noc(C(F)(F)F)n3)cc2)n1 [compound 488] | 100 | 99* % | 100 |  |
| COCC(COC)NC(=O)c1csc(Cc2ccc(-c3noc(C(F)(F)F)n3)cc2)n1 [compound 489] | 99 | 92* % | 100 |  |
| CON=C(CCl)COC(=O)c1cnn(Cc2ccc(-c3noc(C(F)(F)F)n3)cc2)c1 [compound 494] | 0 | 47* % | 100 |  |
| O=C(CCl)COC(=O)c1cnn(Cc2ccc(-c3noc(C(F)(F)F)n3)cc2)c1 [compound 495] | 0 | 43* % | 100 |  |
| CC1(C)OCC(COC(=O)c2cnn(Cc3ccc(-c4noc(C(F)(F)F)n4)cc3)c2)O1 (stereo not drawn) [compound 496] | 0 | 48* % | 100 |  |
| CN(C)C(=O)C1=NOC(COc2cccc(-c3noc(C(F)(F)F)n3)c2)C1 (stereo not drawn) [compound 502] |  | 62% |  | Test C rating (% disease control) ([1]; Rate 250 ppm test suspension): 100%; Test A rating (% disease control) (Phakopsora pachyrhizi; Rate 250 ppm test suspension): 100% |
| ethyl 1-[[4-[5-(trifluoromethyl)-1,2,4-oxadiazol-3-yl]phenyl]methyl]-1H-pyrazole-4-carboxylate [Compound 83] |  |  |  | Test C disease control rating ([1]; 270 ppm test suspension): 100%; Test B disease control rating (Zymoseptoria tritici; 270 ppm test suspension): 5%; Test A disease control rating (Phakopsora pachyrhizi; 270 ppm test suspension): 100% |
| methyl 1,2-dihydro-2-oxo-1-[[4-[5-(trifluoromethyl)-1,2,4-oxadiazol-3-yl]phenyl]methyl]-4-pyridinecarboxylate [Compound 24] |  |  |  | Test C disease control rating ([1]; 270 ppm test suspension): 100%; Test B disease control rating (Zymoseptoria tritici; 270 ppm test suspension): 18%; Test A disease control rating (Phakopsora pachyrhizi; 270 ppm test suspension): 100% |
| methyl 2-[[4-[5-(trifluoromethyl)-1,2,4-oxadiazol-3-yl]-phenoxy]methyl]oxazole-4-carboxylate [Compound 403] |  |  |  | Test C disease control rating ([1]; 250 ppm test suspension): 100%; Test B disease control rating (Zymoseptoria tritici; 250 ppm test suspension): 93%; Test A disease control rating (Phakopsora pachyrhizi; 250 ppm test suspension): 100% |
| methyl 4,5-dihydro-2-[[4-[5-(trifluoromethyl)-1,2,4-oxadiazol-3-yl]phenyl]methyl]-4-oxazolecarboxylate [Compound 74] |  |  |  | Test C disease control rating ([1]; 250 ppm test suspension): 96%; Test B disease control rating (Zymoseptoria tritici; 250 ppm test suspension): 0%; Test A disease control rating (Phakopsora pachyrhizi; 250 ppm test suspension): 100% |
| α-(phenylamino)-4-[5-(trifluoromethyl)-1,2,4-oxadiazol-3-yl]benzeneacetonitrile [Compound 13] |  |  |  | Test C disease control rating ([1]; 250 ppm test suspension): 100%; Test B disease control rating (Zymoseptoria tritici; 250 ppm test suspension): 86%; Test A disease control rating (Phakopsora pachyrhizi; 250 ppm test suspension): 100% |
